Results published in patent US6287840A (Axys Pharmaceuticals, Inc., priority 1999, dated 2001).
“And” between values parts separate entries of the source, which are not always exact repeats. Identical values can stand only once. Like-named read-outs stand apart in the source and are kept apart here.

Key:
[1] = system: Trypanosoma cruzi amastigote infected macrophages; assay: In vitro antiprotozoal activity, Trypanosoma cruzi; assay type: cell-based; parameters: key to percentage inhibition, T. cruzi: the term "T" indicates the molecule to have displayed cytotoxicity
Procedure: (§1) In this table, the in vitro antiprotozoal activities of the indicated compounds were measured as percentage inhibition of Leishmania donovani amastigote infecteda mouse peritoneal macrophages, Trypanosoma cruzi amastigote infected macrophages, and Trypanosoma brucei extracellular bloodstream forms.

[2] = target: T1, Cathepsin B from human placenta (Homo sapiens, UniProt P07858); assay: Inhibition of cathepsin B, Z-Arg-Arg-AMC fluorescence progress curves; assay type: biochemical; details: for k/KI (kirr/KI): values without asterisk, 25° C., pH 6.2
T1 construct: Cathepsin B from human placenta, obtained from Sigma; purchased Sigma; host or cells: human placenta (tissue)
Procedure, shortened: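 Human placental enzyme (~10 nM) in 50 mM phosphate pH 6.2 with 2.5 mM DTT and 2.5 mM EDTA, 50 μM Z-Arg-Arg-AMC, inhibitors 30-0.001 μM, 25° C. AMC fluorescence (ex 380/em 460 nm) progress curves fitted for kobs; kobs/[I] reported, with kirr, KI and kirr/KI substrate-corrected for selected compounds.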

[3] = system: calpain; assay: Inhibition (inactivation) of calpain, Suc-Leu-Tyr-AMC; assay type: biochemical; details: values marked * (or %); pH 7.5, 5 mM CaCl2, 25° C.
Procedure: The inhibitors were tested against calpain at 1 or 2% as for the other enzymes. The reaction conditions were 50 mM Tris, pH 7.5, 5 mM CaCl2, 2.5 mM DTT, assayed at 25° C. The substrate was 100 μM Suc-Leu-Tyr-AMC.

[4] = system: Trypanosoma brucei extracellular bloodstream forms; assay: In vitro antiprotozoal activity, Trypanosoma brucei; assay type: cell-based
Procedure: as §1

[5] = target: T2, Cloned cathepsin S (Homo sapiens, UniProt P25774); assay: Inhibition of cathepsin S, Z-Val-Val-Arg-AMC fluorescence progress curves; assay type: biochemical; details: for Ki: corrected for substrate; for k/KI (kirr/KI): values without asterisk, 25° C., pH 6.5
T2 construct: made in house
Procedure, shortened: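 Fluorescence (380 nm excitation, 460 nm emission) was followed after adding sub-nM enzyme to pH 6.5 phosphate buffer with DTT, EDTA, Triton, 10 μM Z-VVR-AMC and 30-0.001 μM inhibitor at 25 °C. Fitted kobs values gave apparent kobs/[I]; for some, double-reciprocal plots gave kirr, KI and kirr/KI, KI corrected by 1+[S]/Km.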

[6] = system: P. carinii; assay: Growth of P. carinii in vitro; assay type: cell-based; details: 10 mM each
Procedure: Mu-Leu-HphVSPh and Mu-Phe-LysVSPh.HBr were evaluated for their effects on the growth of P. carinii in vitro, according to the procedure of M. S. Bartlett et al. [Antimicrotubule Benzimidazoles Inhibit In Vitro Growth of P. carinii, M. S. Bartlett, T. D. Edlind, M. M. Durkin, M. M. Shaw, S. F. Queener, and J. W. Smith, (1992) Antimicrobial Agents and Chemotherapy, 36, 779-782; Antimicrobial susceptibility of P. carinii in culture, M. S. Bartlett, R. Eichholtz, and J. W. Smith (1985) Diagn. Microbiol. Infect. Dis.; 3, 381-387. Mu-Leu-HphVSPh and Mu-Phe-LysVSPh.HBr (10 mM each) inhibited the growth of P. carinii 64% and 50% respectively.

[7] = system: T. cruzi; assay: T. cruzi infected irradiated J774 cells; assay type: cell-based; parameters: dose or concentration left out as unconfirmed; details: thereafter without inhibitor; compounds listed in decreasing order of effectiveness
Procedure: Irradiated J774 cells were infected with T. cruzi and simultaneously treated with […] of peptidyl vinyl derivatives for 5 days; thereafter without inhibitor. The following compounds were effective in decreasing order: Mu-Phe-ArgVSPh, Boc-Tyr(I2)-HphVSPh, Mu-Phe-VaIVSPh, Boc-Tic-HphVSPh, Mu-Phe-Ser(OBzl)VSPh, Mu-Leu-HphVSPh, Mu-Tyr(I2)-HphVSPh, Mu-Phe-LysVSPh, Mu-Tic-HphVSPh.

T2 sequence (P25774 115-331): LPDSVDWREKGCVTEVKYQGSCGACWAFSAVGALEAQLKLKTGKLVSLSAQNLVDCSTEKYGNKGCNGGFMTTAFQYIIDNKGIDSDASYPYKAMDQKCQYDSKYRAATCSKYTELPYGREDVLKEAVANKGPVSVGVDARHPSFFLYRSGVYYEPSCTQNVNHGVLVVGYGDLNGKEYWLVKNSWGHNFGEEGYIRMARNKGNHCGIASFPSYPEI

k/KI (kirr/KI) [2] | kirr [5] | Ki [5] | k/KI (kirr/KI) [5] | Structure (SMILES) | percentage inhibition, T. cruzi ([1]; 3 uM) | percentage inhibition, T. cruzi ([1]; 10 uM) | percentage inhibition, T. cruzi ([1]; 30 uM) | percentage inhibition, T. cruzi ([1]; 90 uM) | percentage inhibition, T. brucei ([4]; 3 uM) | percentage inhibition, T. brucei ([4]; 10 uM) | percentage inhibition, T. brucei ([4]; 30 uM) | percentage inhibition, T. brucei ([4]; 90 uM) | further results
16,400 M^-1 sec^-1 | 0.085 s⁻¹ | 11 nM | 7,700,000 M^-1 sec^-1 | O=C(N[C@H](/C=C/S(=O)(=O)c1ccccc1)CCc1ccccc1)C(Cc1ccccc1)NC(=O)N1CCOCC1 (stereo partly drawn) [Mu-Phe-HphVSPh, (S)-(E)-3-(4-morpholinecarbonyl-phenylalanyl)amino-5-phenyl-1-phenylsulfonyl-1-pentene] | 10% | 10% | 50.1% | T | 90.5% | 82.7% | 100% | 100% | kirr [2]: 0.17 s⁻¹; Ki ([2]; corrected for substrate): 11000 nM; kirr ([2]; listed as Mu-Phe-Hph-VSPh): 0.061 s⁻¹ and 0.12 s⁻¹; kobs /[I]* [3]: < 50 M⁻¹ s⁻¹; ED50, T. brucei [4]: 2190 nM; percentage inhibition, T. brucei ([4]; 1 uM): 10.2%; Ki ([5]; listed as Mu-Phe-Hph-VSPh): 23 nM; kirr ([5]; listed as Mu-Phe-Hph-VSPh): 0.15 s⁻¹; k/KI (kirr/KI) ([5]; listed as Mu-Phe-Hph-VSPh): 6,500,000 M^-1 sec^-1
4250 M⁻¹ s⁻¹ | 0.16 s⁻¹ | 5.9 nM | 26,300,000 M^-1 sec^-1 | CC(C)C[C@H](NC(=O)N1CCOCC1)C(=O)N[C@H](/C=C/S(=O)(=O)c1ccccc1)CCc1ccccc1 [Mu-Leu-HphVSPh, (S)-(E)-3-(4-morpholinecarbonylleucyl)amino-5-phenyl-1-phenylsulfonyl-1-pentene] | 0% | 0% | 11.4% | T | 11.2% | 82.2% | 84.7% | 100% | inhibition of the growth of P. carinii [6]: 64%; effectiveness against T. cruzi in J774 cells [7]: effective
